Laboratory results: ChEMBL document CHEMBL1201862, “PubChem BioAssay data set” (2004)
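Cultured in 96-well plates, cells were exposed to test compound for 48 hours across five concentrations. At the GI50, growth is halved.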 The source made the active and inactive calls. Rule as the data show it: active = GI50 up to about 1.1 µM and inactive = higher.

Legend:
Test in all cases: NCI-60 cell line screen, 48 h
CCRF-CEM = system: CCRF-CEM
SK-MEL-5 = system: SK-MEL-5
LOX IMVI = system: LOX IMVI
M14 = system: M14
IGROV-1 = system: IGROV-1
NCI-H23 = system: NCI-H23
COLO 205 = system: COLO 205
HOP-18 = system: HOP-18
HT-29 = system: HT-29
HOP-92 = system: HOP-92
M19-MEL = system: M19-MEL
SK-OV-3 = system: SK-OV-3
TK-10 = system: TK-10
HCC 2998 = system: HCC 2998
LXFL 529 = system: LXFL 529
OVCAR-3 = system: OVCAR-3
SR = system: SR
SN12C = system: SN12C
ACHN = system: ACHN
DMS-114 = system: DMS-114
SF-539 = system: SF-539
SNB-19 = system: SNB-19
HCT-116 = system: HCT-116
CAKI-1 = system: CAKI-1
SF-268 = system: SF-268
OVCAR-4 = system: OVCAR-4
A549 = system: A549
MOLT-4 = system: MOLT-4
NCI-H522 = system: NCI-H522
A498 = system: A498
SK-MEL-28 = system: SK-MEL-28
NCI-H226 = system: NCI-H226
SF-295 = system: SF-295
SW-620 = system: SW-620
RPMI-8226 = system: RPMI-8226
OVCAR-5 = system: OVCAR-5
K562 = system: K562
Malme-3M = system: Malme-3M
786-0 = system: 786-0
KM12 = system: KM12
DLD-1 = system: DLD-1
SNB-75 = system: SNB-75
UO-31 = system: UO-31
XF498 = system: XF498
HOP-62 = system: HOP-62
UACC-257 = system: UACC-257
U-251 = system: U-251
OVCAR-8 = system: OVCAR-8
SK-MEL-2 = system: SK-MEL-2
UACC-62 = system: UACC-62
RXF 393 = system: RXF 393
KM-20L2 = system: KM-20L2
NCI/ADR-RES = system: NCI/ADR-RES
MCF7 = system: MCF7
EKVX = system: EKVX
SNB-78 = system: SNB-78
NCI-H460 = system: NCI-H460
DMS-273 = system: DMS-273
HCT-15 = system: HCT-15
HL-60 = system: HL-60

`CCOC(=O)NC(=O)c1cn(CCN2CCN(C(=O)CCCCCCCCCCC(=O)N3CCN(CCn4cc(C(=O)NC(=O)OCC)c(=O)[nH]c4=O)CC3)CC2)c(=O)[nH]c1=O` was tested, and the GI50 (CCRF-CEM) was > 100 µM (inactive), the GI50 (SK-MEL-5) was > 100 µM (inactive) and the GI50 (LOX IMVI) was 29.3 µM (inactive). For the same molecule, the GI50 (M14) was > 100 µM (inactive), the GI50 (IGROV-1) was > 100 µM (inactive) and the GI50 (NCI-H23) was > 100 µM (inactive). The GI50 (COLO 205) was > 100 µM (inactive), the GI50 (HOP-18) was > 100 µM (inactive) and the GI50 (HT-29) was > 100 µM (inactive). The GI50 (HOP-92) was > 100 µM (inactive), the GI50 (M19-MEL) was > 100 µM (inactive) and the GI50 (SK-OV-3) was > 100 µM (inactive). The GI50 (TK-10) was > 100 µM (inactive), the GI50 (HCC 2998) was > 100 µM (inactive) and the GI50 (LXFL 529) was > 100 µM (inactive). For the same molecule, the GI50 (OVCAR-3) was > 100 µM (inactive), the GI50 (SR) was > 100 µM (inactive) and the GI50 (SN12C) was > 100 µM (inactive). The GI50 (ACHN) was > 100 µM (inactive), the GI50 (DMS-114) was > 100 µM (inactive) and the GI50 (SF-539) was > 100 µM (inactive). The GI50 (SNB-19) was > 100 µM (inactive), the GI50 (HCT-116) was > 100 µM (inactive) and the GI50 (CAKI-1) was > 100 µM (inactive). The GI50 (SF-268) was > 100 µM (inactive), the GI50 (OVCAR-4) was > 100 µM (inactive) and the GI50 (A549) was > 100 µM (inactive). For the same molecule, the GI50 (MOLT-4) was > 100 µM (inactive), the GI50 (NCI-H522) was 86.5 µM (inactive) and the GI50 (A498) was > 100 µM (inactive). For the same molecule, the GI50 (SK-MEL-28) was > 100 µM (inactive), the GI50 (NCI-H226) was > 100 µM (inactive) and the GI50 (SF-295) was 36.8 µM (inactive). The GI50 (SW-620) was > 100 µM (inactive), the GI50 (RPMI-8226) was > 100 µM (inactive) and the GI50 (OVCAR-5) was 51.6 µM (inactive). For the same molecule, the GI50 (K562) was > 100 µM (inactive), the GI50 (Malme-3M) was > 100 µM (inactive) and the GI50 (786-0) was > 100 µM (inactive). For the same molecule, the GI50 (KM12) was > 100 µM (inactive), the GI50 (DLD-1) was > 100 µM (inactive) and the GI50 (SNB-75) was > 100 µM (inactive). The GI50 (UO-31) was > 100 µM (inactive), the GI50 (XF498) was > 100 µM (inactive) and the GI50 (HOP-62) was > 100 µM (inactive). For the same molecule, the GI50 (UACC-257) was > 100 µM (inactive), the GI50 (U-251) was > 100 µM (inactive) and the GI50 (OVCAR-8) was > 100 µM (inactive).
With `C/C(=C\c1ccccc1)C(=O)CCN1CCOCC1` the GI50 (CCRF-CEM) was 30.6 µM (inactive), the GI50 (SK-MEL-5) was 33 µM (inactive) and the GI50 (LOX IMVI) was 16.9 µM (inactive). For the same molecule, the GI50 (IGROV-1) was 27.4 µM (inactive), the GI50 (NCI-H23) was 16.9 µM (inactive) and the GI50 (COLO 205) was 17.2 µM (inactive). The GI50 (HOP-18) was 18.3 µM (inactive), the GI50 (HT-29) was 18.8 µM (inactive) and the GI50 (SK-MEL-2) was 27.2 µM (inactive). The GI50 (HOP-92) was 20.4 µM (inactive), the GI50 (M19-MEL) was 17.2 µM (inactive) and the GI50 (SK-OV-3) was > 100 µM (inactive). The GI50 (HCC 2998) was 16.7 µM (inactive), the GI50 (OVCAR-3) was 19.3 µM (inactive) and the GI50 (UACC-62) was 17.6 µM (inactive). The GI50 (RXF 393) was 19.7 µM (inactive), the GI50 (SN12C) was 18.2 µM (inactive) and the GI50 (KM-20L2) was 19.5 µM (inactive). For the same molecule, the GI50 (NCI/ADR-RES) was 21.8 µM (inactive), the GI50 (DMS-114) was 18.7 µM (inactive) and the GI50 (SF-539) was 18.3 µM (inactive). The GI50 (MCF7) was 7.87 µM (inactive), the GI50 (SNB-19) was > 44.9 µM (inactive) and the GI50 (HCT-116) was 28 µM (inactive). The GI50 (EKVX) was 27.8 µM (inactive), the GI50 (CAKI-1) was 18.1 µM (inactive) and the GI50 (SF-268) was 32.1 µM (inactive). For the same molecule, the GI50 (OVCAR-4) was 18 µM (inactive), the GI50 (SNB-78) was 15.6 µM (inactive) and the GI50 (NCI-H460) was 62.1 µM (inactive). For the same molecule, the GI50 (A549) was > 90.8 µM (inactive), the GI50 (MOLT-4) was 19.1 µM (inactive) and the GI50 (NCI-H522) was 7.94 µM (inactive). For the same molecule, the GI50 (A498) was > 56 µM (inactive), the GI50 (DMS-273) was 19.7 µM (inactive) and the GI50 (SK-MEL-28) was 19.4 µM (inactive). For the same molecule, the GI50 (NCI-H226) was > 46.1 µM (inactive), the GI50 (SF-295) was > 100 µM (inactive) and the GI50 (SW-620) was 16.5 µM (inactive). The GI50 (RPMI-8226) was 3.15 µM (inactive), the GI50 (OVCAR-5) was 18.9 µM (inactive) and the GI50 (K562) was 30.1 µM (inactive). For the same molecule, the GI50 (Malme-3M) was 17.5 µM (inactive), the GI50 (KM12) was 14.9 µM (inactive) and the GI50 (DLD-1) was 17.3 µM (inactive). The GI50 (SNB-75) was 23.7 µM (inactive), the GI50 (UO-31) was 20.8 µM (inactive) and the GI50 (XF498) was 18.3 µM (inactive). The GI50 (HOP-62) was > 100 µM (inactive), the GI50 (UACC-257) was 15.6 µM (inactive) and the GI50 (HCT-15) was 16.3 µM. For the same molecule, the GI50 (U-251) was 18.1 µM (inactive), the GI50 (HL-60) was 33.7 µM (inactive) and the GI50 (OVCAR-8) was 20.5 µM (inactive).
